Structures are written as SMILES. Counter-ions that a name gives are not always drawn.

One may read the IC50 as the concentration that gives 50% inhibition.

T1 sequence (P10721 26-976 V560G/V654A): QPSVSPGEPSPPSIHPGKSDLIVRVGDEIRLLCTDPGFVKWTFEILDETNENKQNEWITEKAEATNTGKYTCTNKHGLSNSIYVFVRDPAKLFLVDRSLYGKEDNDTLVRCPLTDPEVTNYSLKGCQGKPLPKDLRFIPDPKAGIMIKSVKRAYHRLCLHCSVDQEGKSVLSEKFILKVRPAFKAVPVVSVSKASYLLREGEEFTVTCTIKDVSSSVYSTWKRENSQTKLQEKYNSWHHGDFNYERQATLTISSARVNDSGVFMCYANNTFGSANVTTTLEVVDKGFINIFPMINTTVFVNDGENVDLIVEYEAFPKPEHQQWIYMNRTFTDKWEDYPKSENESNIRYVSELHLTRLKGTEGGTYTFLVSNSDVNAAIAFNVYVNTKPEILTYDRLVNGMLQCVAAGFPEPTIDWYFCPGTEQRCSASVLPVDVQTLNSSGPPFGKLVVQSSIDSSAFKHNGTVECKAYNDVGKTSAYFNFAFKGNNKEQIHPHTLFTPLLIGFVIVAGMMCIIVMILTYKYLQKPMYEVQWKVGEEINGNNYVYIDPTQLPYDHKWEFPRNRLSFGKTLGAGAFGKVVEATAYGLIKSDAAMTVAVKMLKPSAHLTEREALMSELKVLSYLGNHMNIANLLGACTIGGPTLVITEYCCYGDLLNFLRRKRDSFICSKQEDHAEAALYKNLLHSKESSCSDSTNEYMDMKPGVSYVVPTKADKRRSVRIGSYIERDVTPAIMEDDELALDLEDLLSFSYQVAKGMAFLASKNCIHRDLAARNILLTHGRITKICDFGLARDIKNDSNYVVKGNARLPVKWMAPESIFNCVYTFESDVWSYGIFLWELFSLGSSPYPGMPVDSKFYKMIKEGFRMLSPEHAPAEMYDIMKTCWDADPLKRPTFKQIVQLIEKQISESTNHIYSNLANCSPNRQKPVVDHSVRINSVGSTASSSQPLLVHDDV

This assay addresses T1, c-kit autophosphorylation (Phospho c-Kit Tyr721) in HMC 1.1 (exon 11/13) cells, V654A (Homo sapiens, UniProt P10721, V560G/V654A).
T1 construct: endogenous in cells; host or cells: HMC 1.1 (exon 11/13) cells
Kind of assay: pKIT Meso Scale Discovery (MSD) assay, inhibition of autophosphorylation of KIT, HMC1.1_V654A. The format is cell-based. The settings on record: Table 1, cell line not named for Table 1, b1056 names pKIT HMC1.1_V654A, read-out: Code (IC50 for inhibition of autophosphorylation of KIT, pKIT MSD assay). The text has this: In this MSD assay, specific capture antibodies for the analytes were coated in arrays in each well of a 96-well carbon electrode plate surface. The detection system used SULFO-TAG™ labels that emit light upon electrochemical stimulation initiated at the electrode surfaces of the […] and MULTI-SPOT® plates. The electrical stimulation was decoupled from the output signal, which was light and generated assays with minimal background. The goal of this assay was to assess the percent inhibition of autophosphorylation of c-kit in cells when treated with compounds of the disclosure in a dose-dependent manner.
HMC1.1 cells were maintained in IMDM media supplemented with 20% Calf Serum with Iron and 100 units/mL Penicillin-Streptomycin and grown in a 37° C. humidified tissue culture incubator. HMC1.1 cells were passaged by 1:5 dilution into fresh IMDM media supplemented with 20% Calf Serum with Iron and 100 units/mL Penicillin-Streptomycin every 5-7 days and were discarded after 20 passages.
Seeding was performed as follows: HMC cells were brought to 1×10^6 cells/mL in fresh phenol red free, serum-free, iron-free IDM media with Pen/Strep; cells were seeded/plated into respective U-bottom plate by dispensing 50 μL/well (50,000 cells) using the Multidrop, and covered and incubated cells at 37° C. in a humidified tissue culture incubator for 4 hours (starvation).
Dosing was performed as follows: The compound mother plate was prepared by adding 16 μL of compound to 24 μL of DMSO to row A, odd-numbered columns of screen matrix plate. […] Intermediate plates were prepared in V-bottom plates by dispensing 98 μL of phenol red free, serum free IMDM media with Pen/Strep into all wells. 2 μL DMSO or 2 μL 10 mM staurosporine was added to appropriate control wells. At the end of four hours, the Bravo protocol 10 cpds vertical dose MSD 2 U-plates 96-well was used to: add 2 μL from the compound plate to the intermediate plate and dose cells with 7 μL from the intermediate plate. The cells were covered and incubated at 37° C. in a humidified tissue culture incubator for 90 min. The complete lysis buffer was prepared with AlphaLISA 5× Lysis Buffer supplemented with 1× protease inhibitor cocktail and kept on ice. The cells were pelleted by centrifuging plate at 2500×g for 5 min, 4° C. and media removed. Complete lysis buffer was added (14 μL/well). The cells were covered and shaken at 4° C. on a plate shaker at 600 rpm for 30 min and kept cold
The MSD protocol was preformed as follows: Tris Wash Buffer (2L) was prepared by diluting 10× stock of Tris Wash Buffer to 1× in water. Blocking Solution was prepared by dissolving 600 mg Blocker A in 20 mL 1× Trish Wash Buffer (per plate). The Antibody Dilution Buffer was prepared by mixing 1 mL Blocking solution and 2 mL 1× Trish Wash Buffer (per plate) and kept on ice. Blocking Solution was added (150 μL/well) to each MSD plate using a multichannel repeater pipette. The plate was covered and incubated at room temperature on a plate shaker at 700 rpm for hr. The Bio Tek protocol RL-96w-wash-MSD_stacker_fromC was used to wash plates 3× with 150 μL/well. Cells were pelleted by centrifuging lysate plates at 2500×g for 5 mins. The Bravo protocol was used (transfer 25 ul supernatants from V-96 to assay plate) to transfer 25 μL sample lysate per well to each MSD plate. The plates were covered and incubated at room temperature on a plate shaker at 700 rpm for hr. The Bio Tek protocol RL-96w-wash-MSD_stacker_fromC was used to wash plates 3× with 150 μL/well. The Detection Antibody Solution was prepared by diluting the 60 μL of the 50× antibody stock in 2.94 mL of the Antibody Dilution Buffer (per plate) and kept on ice. 25 μL/well of detection antibody solution was added to each MSD plate. The plates were covered and incubated at room temperature on a plate shaker at 700 rpm for 1 hr. The Read Buffer was prepared by diluting 5 mL of 4× stock of Read Buffer to 1× in 15 mL water (per plate).
As to `COc1cc(Nc2cc(N)nc(C(F)F)n2)ncc1-c1cnn([C@H]2CCNC2)c1` (single isomer, unassigned) [Compound 99, (S)-2-(difluoromethyl)-N4-(4-methoxy-5-(1-(pyrrolidin-3-yl)-1H-pyrazol-4-yl)pyridin-2-yl)pyrimidine-4,6-diamine or (R)-2-(difluoromethyl)-N4-(4-methoxy-5-(1-(pyrrolidin-3-yl)-1H-pyrazol-4-yl)pyridin-2-yl)pyrimidine-4,6-diamine], the 50% inhibitory concentration (IC50) is 10 to 40 nM.

Turning to `CN(CCn1cc(-c2cnc(Nc3cc(N)nc(C(F)F)n3)cc2OC2CC2)cn1)CC(F)(F)F` [Compound 203, N4-(4-cyclopropoxy-5-(1-(2-(methyl(2,2,2-trifluoroethyl)amino)ethyl)-1H-pyrazol-4-yl)pyridin-2-yl)-2-(difluoromethyl)pyrimidine-4,6-diamine], the IC50 was under 10 nM.

As to `CC(C)(O)Cn1cc(-c2cnc(Nc3cc(N)nc(C(F)F)n3)cc2OC(F)(F)F)cn1` [Compound 198, 1-(4-(6-((6-amino-2-(difluoromethyl)pyrimidin-4-yl)amino)-4-(trifluoromethoxy)pyridin-3-yl)-1H-pyrazol-1-yl)-2-methylpropan-2-ol], the half-maximal inhibitory concentration (IC50) was under 10 nM.

Regarding `CNC(=O)c1cnc(Nc2cc(N)nc(C(F)F)n2)cc1NC(CF)CF` [Compound 75, 6-((6-amino-2-(difluoromethyl)pyrimidin-4-yl)amino)-4-((1,3-difluoropropan-2-yl)amino)-N-methylnicotinamide], the IC50 is under 10 nM.

On to `CN(C)CCn1cc(-c2cnc(Nc3cc(N)nc(C(F)F)n3)cc2OC(F)F)cn1` [Compound 179, N4-(4-(difluoromethoxy)-5-(1-(2-(dimethylamino)ethyl)-1H-pyrazol-4-yl)pyridin-2-yl)-2-(difluoromethyl)pyrimidine-4,6-diamine], for which the IC50 was under 10 nM.

In the case of `CC(C)Oc1cc(Nc2cc(N)nc(CF)n2)ncc1-c1cnn(C)c1` [Compound 33, 2-(fluoromethyl)-N4-(4-isopropoxy-5-(1-methyl-1H-pyrazol-4-yl)pyridin-2-yl)pyrimidine-4,6-diamine], the IC50 was under 10 nM.

On to `CNC(=O)c1cnc(Nc2cc(N)nc(CF)n2)cc1NC(C)C` [Compound 9, 6-((6-amino-2-(fluoromethyl)pyrimidin-4-yl)amino)-4-(isopropylamino)-N-methylnicotinamide], for which the IC50 is under 10 nM.

In the case of `Cn1cc(-c2cnc(Nc3cc(N)nc(C(F)F)n3)cc2OC[C@H]2C[C@H](O)C2)cn1` [Compound 144, (1r,3r)-3-(((2-((6-amino-2-(difluoromethyl)pyrimidin-4-yl)amino)-5-(1-methyl-1H-pyrazol-4-yl)pyridin-4-yl)oxy)methyl)cyclobutan-1-ol], the IC50 is 10 to 40 nM.

For `COc1cc(Nc2cc(N)nc(C(F)F)n2)ncc1-c1cnn(CCO)c1` [Compound 59, 2-(4-(6-((6-amino-2-(difluoromethyl)pyrimidin-4-yl)amino)-4-methoxypyridin-3-yl)-1H-pyrazol-1-yl)ethan-1-ol trifluoroacetate], the IC50 was 10 to 40 nM.

In the case of `Cn1cc(-c2cnc(Nc3cc(N)nc(CF)n3)cc2OC2CC2)cn1` [Compound 32, N4-(4-cyclopropoxy-5-(1-methyl-1H-pyrazol-4-yl)pyridin-2-yl)-2-(fluoromethyl)pyrimidine-4,6-diamine], the IC50 is under 10 nM.

For `CCOc1cc(Nc2cc(N)nc(C(F)F)n2)ncc1-c1cnn(CCNC)c1` [Compound 119, 2-(difluoromethyl)-N4-(4-ethoxy-5-(1-(2-(methylamino)ethyl)-1H-pyrazol-4-yl)pyridin-2-yl)pyrimidine-4,6-diamine], the IC50 was under 10 nM.

Consider `Cn1cc(-c2cnc(Nc3cc(N)nc(C(F)F)n3)cc2OC2CCCOC2)cn1` (centres unmarked) [Compound 142, 2-(difluoromethyl)-N4-(5-(1-methyl-1H-pyrazol-4-yl)-4-((tetrahydro-2H-pyran-3-yl)oxy)pyridin-2-yl)pyrimidine-4,6-diamine], for which the concentration for half-maximal inhibition (IC50) was under 10 nM.

As to `COc1cc(Nc2cc(N)nc(C(F)F)n2)ncc1-c1cnn(C(C)C)c1` [Compound 56], the IC50 was under 10 nM.

With `CNC(=O)c1cnc(Nc2cc(N)nc([C@@H](C)F)n2)cc1NC(C)C` [Compound 20, (R)-6-((6-amino-2-(1-fluoroethyl)pyrimidin-4-yl)amino)-4-(isopropylamino)-N-methylnicotinamide], the half-maximal inhibitory concentration (IC50) is over 40 nM.

For `CNC(=O)c1cnc(Nc2cc(N)nc([C@H](C)F)n2)cc1NC` [Compound 3, (S)-6-((6-amino-2-(1-fluoroethyl)pyrimidin-4-yl)amino)-N-methyl-4-(methylamino)nicotinamide], the IC50 is 10 to 40 nM.

For `CNC(=O)c1cnc(Nc2cc(N)nc(C(F)F)n2)cc1NC1(C)CCOC1` (centres unmarked) [Compound 89, 6-((6-amino-2-(difluoromethyl)pyrimidin-4-yl)amino)-N-methyl-4-((3-methyltetrahydrofuran-3-yl)amino)nicotinamide], the IC50 was under 10 nM.

As for `CCNC(=O)c1cnc(Nc2cc(N)nc(C(F)F)n2)cc1NC1CC1` [Compound 38, 6-((6-amino-2-(difluoromethyl)pyrimidin-4-yl)amino)-4-(cyclopropylamino)-N-ethylnicotinamide], the IC50 was under 10 nM.

Turning to `CCNc1cc(Nc2cc(N)nc(C(F)F)n2)ncc1C(=O)NCc1ccccn1` [Compound 131, 6-((6-amino-2-(difluoromethyl)pyrimidin-4-yl)amino)-4-(ethylamino)-N-(pyridin-2-ylmethyl)nicotinamide], the IC50 was under 10 nM.

Turning to `C[C@H](CF)Nc1cc(Nc2cc(N)nc(C(F)F)n2)ncc1C(=O)NC12CC(CO)(C1)C2` [Compound 189, (R)-6-((6-amino-2-(difluoromethyl)pyrimidin-4-yl)amino)-4-((1-fluoropropan-2-yl)amino)-N-(3-(hydroxymethyl)bicyclo[1.1.1]pentan-1-yl)nicotinamide], the IC50 lay within 10 to 40 nM.

`COc1cc(Nc2cc(N)nc(C(F)F)n2)ncc1-c1cnn(C[C@@H]2CCN2)c1` (single isomer, unassigned) [Compound 102, (S)-N4-(5-(1-(azetidin-2-ylmethyl)-1H-pyrazol-4-yl)-4-methoxypyridin-2-yl)-2-(difluoromethyl)pyrimidine-4,6-diamine or (R)-N4-(5-(1-(azetidin-2-ylmethyl)-1H-pyrazol-4-yl)-4-methoxypyridin-2-yl)-2-(difluoromethyl)pyrimidine-4,6-diamine]: the half-maximal inhibitory concentration (IC50) was under 10 nM.

Consider `CC(C)Oc1cc(Nc2cc(N)nc([C@H](C)F)n2)ncc1-c1cnn(C)c1` [Compound 51, (S)-2-(1-fluoroethyl)-N4-(4-isopropoxy-5-(1-methyl-1H-pyrazol-4-yl)pyridin-2-yl)pyrimidine-4,6-diamine], for which the IC50 is under 10 nM.

Turning to `COc1cc(Nc2cc(N)nc(C(F)F)n2)ncc1-c1cnn(C2CC2)c1` [Compound 52, N4-(5-(1-cyclopropyl-1H-pyrazol-4-yl)-4-methoxypyridin-2-yl)-2-(difluoromethyl)pyrimidine-4,6-diamine], the IC50 was under 10 nM.

As for `C[C@H](CF)Nc1cc(Nc2cc(N)nc(C(F)F)n2)ncc1C(=O)NCc1ccccn1` [Compound 187, (R)-6-((6-amino-2-(difluoromethyl)pyrimidin-4-yl)amino)-4-((1-fluoropropan-2-yl)amino)-N-(pyridin-2-ylmethyl)nicotinamide], the IC50 lay within 10 to 40 nM.

The record behind these values is patent US20250270190A1, “KIT INHIBITORS” (BLUEPRINT MEDICINES CORPORATION, priority 2022, published 2025).
